# Data taken from patent US9643985B2, “PCL compounds, compositions, and methods of use thereof” (The Board Of Trustees Of The University Of Illinois, priority 2013, dated 2017).
# Read-outs that look alike come from different tables or passages of the source.
# Legend:
# [1] = rate constant of the competing milieu component with peroxynitrite; cited from earlier work
# [2] = Yield of D-Luciferin (A385) after treatment with peroxynitrite (bolus or SIN-1 derived); details: for Maximum Yield Luciferin(%): 5 μM PCL-1 in TBS, pH 8.5, 37° C., 90 minutes, A385
# Excerpt: Where applicable, spectral contributions from oxidants were subtracted via a parallel blank experiment containing no PCL-1.
# (§1) The environment inside most cellular compartments is “reducing”—a status heavily dependent on the multiple antioxidant systems that rapidly detoxify oxidants in cells such as thioredoxins and glutathione/glutathione reductase redox systems and catalase. A viable biosensor for an oxidant inside of cells and tissue should detect its target in the presence of these and other ubiquitous milieu components.
# (§2) Data were normalized to bioluminescence obtained from an identical treatment of authentic D-Luciferin (5 μM). […] In all cases, spectral contributions from oxidants were subtracted via a parallel blank experiment containing no PCL-1.
# [3] = Total bioluminescence after minimal SIN-1 or H2O2 (FIG. 1); details: 60 minutes at 37° C.
# Method: Recombinant luciferase was added to the reaction mixture and bioluminescence was detected at 612 nm for 60 minutes. D-Luciferin (5 μM) was used as a determinant of maximum yield.
# [4] = Yield of D-Luciferin (A385) after treatment with H2O2
# Excerpt: as §1, §2
# [5] = Rate constant of reaction with peroxynitrite, stopped-flow spectroscopy; details: 100 mM sodium phosphate, pH 7.4, 37° C. (Table 3)
# [6] = Rate constant of reaction with H2O2; details: 100 mM sodium phosphate, pH 7.4, 37° C. (Table 3)
# [7] = Reactivity of PCL-1 towards other oxidants
# [8] = test system: mouse bone marrow-derived macrophages (BMDM); assay: Detection of iNOS-derived peroxynitrite in LPS-stimulated macrophages; type: cell-based
# Method: Bone marrow derived macrophages were prepared using 10% L929 cell (ATCC) supernatant in RPMI medium (Cellgro) made complete with 10% FBS, penicillin, streptomycin, and glutamine (Gibco). Cells were cultured 4-6 days prior to plating for experiments in opaque, white microtiter plates (Falcon) for analysis on a Wallac Victor2 luminometer (PerkinElmer).
# In order to validate the utility of PCL-1 to detect peroxynitrite in cells, mouse bone marrow-derived macrophages (BMDM) were stimulated with 50 ng/mL bacterial LPS (lipopolysaccharide) for 22 hours, 5 μM PCL-1 was added for an additional 2 hours, then D-Luciferin generated was quantified over the course of 2 hours by addition of […] recombinant luciferase, according to Example 1.
# [9] = Safety of PCL-1 in mice, oral gavage; type: in vivo; details: 40 to 250 μM per animal via oral gavage
# C57BL/6 mice irradiated = assay: Irradiated mouse model, fecal PCL-1/luciferin marker by LC-MS/MS; type: in vivo
# Method: (§3) C57BL/6 mice were irradiated at a high lethal dose of 13Gy or at a LD70/30 of 8.1Gy in independent experiments using a Cs^137 source. PCL-1 was administered via oral gavage at 40 or 60 μM/animal, 0.2 mL volume per animal. Fecal samples were collected […] from the irradiated and non-irradiated mice at different time points (pre-dose, 4, 6 and 8 hr post-dose) prior to irradiation and also on days 1, 5 and 7 post-irradiation from all animals. PCL-1 and cleaved PCL-1 (luciferin) levels were measured in the feces using LC-MS/MS method.
# [10] = Maximum fecal concentrations after oral administration of PCL-1; type: in vivo, mice; details: up to a 6.25 fold increase in dose
# Method: as §3
# Additionally with up to a 6.25 fold increase in dose a directly proportional fold increase in marker detected was not observed.
compound,measurement,setting,value
bovine serum albumin: milieu component competing for oxidants,kONOO−,[1],8310 M⁻¹ s⁻¹
"O=C(O)[C@H]1CSC(c2nc3ccc(OCc4ccc(B(O)O)c(F)c4)cc3s2)=N1 [PCL-F, (S)-2-(6-(4-borono-3-fluorobenzyloxy)benzo[d]thiazol-2-yl)-4,5-dihydrothiazole-4-carboxylic acid]",glutathione concentration until which reactivity with SIN-1 was retained,"[2]; 5 μM, 100 μM SIN-1, 90 minutes",1 to 5 mM
same,resistance to hydrolysis,"[3]; 5 μM, bioluminescence at 612 nm",resistant to hydrolysis in comparison to PCL-1
same,selectivity in detecting peroxynitrite vs. hydrogen peroxide,[3]; SIN-1 (2.5 μM) or H2O2 (25 μM),more selective than PCL-1
same,reactivity with H2O2,"[4]; 5 μM in TBS, pH 8.5, 37° C., 100 μM H2O2, 90 minutes, compared to PCL-1",Little reactivity
same,kONOO−,[5],4.5 (±0.2) × 10^5 M^−1s^−1
same,kH2O2,[6],0.11 (±0.02) M^−1s^−1
O=C(O)[C@H]1CSC(c2nc3ccc(OCc4ccc(B(O)O)cc4)cc3s2)=N1 [PCL-1],D-luciferin obtained,"[2]; SIN-1, in the presence of BSA",45.49%
same,"effect of GSH, albumin or catalase on peroxynitrite reactivity",[2]; at the tested concentrations,≤ 10%
same,Maximum Yield Luciferin(%),[2]; peroxynitrite bolus (10 μM),95%
same,Maximum Yield Luciferin(%),[2]; peroxynitrite from SIN-1 (100 μM),96%
same,yield of D-Luciferin,"[2]; peroxynitrite, in the presence of 66.5 mg/mL BSA (1.0 mM)",87.5±7.48%
same,"sensitivity towards NO, superoxide radical anion, HOCl, and singlet oxygen",[7],insensitive
same,D-Luciferin signal,"[8]; BMDMs from iNOS^−/− animals, LPS",no signal above baseline
same,D-Luciferin production over the baseline value,"[8]; wild-type macrophages, LPS 50 ng/mL, 5 μM PCL-1",nearly two-fold increase
same,signs of toxicity,[9],no signs of toxicity were observed
same,Maximum Yield Luciferin(%),"[4]; H2O2 (100 μM) added to 5 μM PCL-1 in TBS, pH 8.5, 37° C., 90 minutes, A385 normalized to authentic D-luciferin",97%
same,yield luciferin,"[4]; H2O2 as oxidant, with added BSA",7.38±1.39%
same,H2O2-mediated conversion to luciferin,"[4]; in the presence of GSH, albumin or catalase",negligible
same,conversion to luciferin by H2O2,"[4]; in vitro, in the absence of GSH, albumin, or catalase",quantitatively converted to luciferin
same,kONOO−,[5],9.8 (±0.1) × 10^5 M^−1s^−1
same,increase in PCL-1 and % cleaved PCL-1 levels in the feces,"C57BL/6 mice irradiated; 8.1Gy irradiation, until day 7",two-fold or more increase
same,increase in the level of the marker in fecal samples vs control,"C57BL/6 mice irradiated; 13Gy, days 5 to 7, PCL-1 oral gavage",about 3 fold
same,kH2O2,[6],1.2 (±0.3) M^−1s^−1
same,dose dependence of fecal detection,[10],not dose dependent
N[C@@H](CCC(=O)N[C@@H](CS)C(=O)NCC(=O)O)C(=O)O [glutathione],kONOO−,[1],1400 M⁻¹ s⁻¹
